Data taken from patent publication US20230146395A1, “Substituted Pyrimidines and Uses Thereof” (Verge Analytics, Inc., priority 2020, published 2023).
Where a name gives a salt, the structure may show the parent alone.

Target: T1, Full length human recombinant PIKFYVE (Homo sapiens, UniProt Q9Y2I7)
T1 construct: Full length human recombinant PIKFYVE; purchased Carna Biosciences (Kobe, Japan); host or cells: baculovirus expression system
Experiment: Inhibition of PIKfyve (microfluidic electrophoresis kinase assay, PI3P/PS substrate)
Assay type: biochemical
Conditions: 12 concentrations
Protocol: Full length human recombinant PIKFYVE expressed in baculovirus expression system as N-terminal GST-fusion protein (265 kDa) was obtained from Carna Biosciences (Kobe, Japan). The kinase substrate was prepared by mixing and sonicating fluorescently-labeled phosphatidylinositol 3-phosphate (PI3P) with phospho-L-serine (PS) at a 1:10 ratio in 50 mM HEPES buffer pH 7.5.
The kinase reactions were assembled in 384-well plates (Greiner) in a total volume of […] as follows. Kinase protein was pre-diluted in an assay buffer comprising 25 mM HEPES, pH 7.5, 1 mM DTT, 2.5 mM MgCl2, and 2.5 mM MnCl2, and 0.005% Triton X-100, and dispensed into a 384-well plate (10 μL per well). Test compounds were serially pre-diluted in DMSO and added to the protein samples by acoustic dispensing (Labcyte Echo). The concentration of DMSO was equalized to 1% in all samples. All test compounds were tested at 12 concentrations. Apilimod was used as a reference compound and was tested in identical manner in each assay plate. Control samples (0%-inhibition, in the absence of inhibitor, DMSO only) and 100%-inhibition (in the absence of enzyme) were assembled in replicates of four and were used to calculate %-inhibition in the presence of compounds. The reactions were initiated by addition of 10 μL of 2×PI3P/PS substrate supplemented with ATP. The final concentration of enzyme was 2 nM, the final concentration of ATP was […], and the final concentration of PI3P/PS substrate was 1 μM (PI3P). The kinase reactions were allowed to proceed for 3 h at room temperature. Following incubation, the reactions were quenched by addition of […] of termination buffer (100 mM HEPES, pH 7.5, 0.01% Triton X-100, 20 mM EDTA). Terminated plates were analyzed on a microfluidic electrophoresis instrument (Caliper LabChip® 3000, Caliper Life Sciences/Perkin Elmer). The change in the relative fluorescence intensity of the PI(3)P substrate and PI(3,5)P product peaks was measured. The activity in each test sample was determined as the product to sum ratio (PSR): P/(S+P), where P is the peak height of the product, and S is the peak height of the substrate. Percent inhibition (Pinh) was determined using the following equation:
Pinh=(PSR0% inh−PSRcompound)/(PSR0% inh−PSR100% inh)*100
in which PSRcompound is the product/sum ratio in the presence of compound, PSR0% inh is the product/sum ratio in the absence of compound, and the PSR100% inh is the product/sum ratio in the absence of the enzyme.

T1 sequence (Q9Y2I7 whole entry): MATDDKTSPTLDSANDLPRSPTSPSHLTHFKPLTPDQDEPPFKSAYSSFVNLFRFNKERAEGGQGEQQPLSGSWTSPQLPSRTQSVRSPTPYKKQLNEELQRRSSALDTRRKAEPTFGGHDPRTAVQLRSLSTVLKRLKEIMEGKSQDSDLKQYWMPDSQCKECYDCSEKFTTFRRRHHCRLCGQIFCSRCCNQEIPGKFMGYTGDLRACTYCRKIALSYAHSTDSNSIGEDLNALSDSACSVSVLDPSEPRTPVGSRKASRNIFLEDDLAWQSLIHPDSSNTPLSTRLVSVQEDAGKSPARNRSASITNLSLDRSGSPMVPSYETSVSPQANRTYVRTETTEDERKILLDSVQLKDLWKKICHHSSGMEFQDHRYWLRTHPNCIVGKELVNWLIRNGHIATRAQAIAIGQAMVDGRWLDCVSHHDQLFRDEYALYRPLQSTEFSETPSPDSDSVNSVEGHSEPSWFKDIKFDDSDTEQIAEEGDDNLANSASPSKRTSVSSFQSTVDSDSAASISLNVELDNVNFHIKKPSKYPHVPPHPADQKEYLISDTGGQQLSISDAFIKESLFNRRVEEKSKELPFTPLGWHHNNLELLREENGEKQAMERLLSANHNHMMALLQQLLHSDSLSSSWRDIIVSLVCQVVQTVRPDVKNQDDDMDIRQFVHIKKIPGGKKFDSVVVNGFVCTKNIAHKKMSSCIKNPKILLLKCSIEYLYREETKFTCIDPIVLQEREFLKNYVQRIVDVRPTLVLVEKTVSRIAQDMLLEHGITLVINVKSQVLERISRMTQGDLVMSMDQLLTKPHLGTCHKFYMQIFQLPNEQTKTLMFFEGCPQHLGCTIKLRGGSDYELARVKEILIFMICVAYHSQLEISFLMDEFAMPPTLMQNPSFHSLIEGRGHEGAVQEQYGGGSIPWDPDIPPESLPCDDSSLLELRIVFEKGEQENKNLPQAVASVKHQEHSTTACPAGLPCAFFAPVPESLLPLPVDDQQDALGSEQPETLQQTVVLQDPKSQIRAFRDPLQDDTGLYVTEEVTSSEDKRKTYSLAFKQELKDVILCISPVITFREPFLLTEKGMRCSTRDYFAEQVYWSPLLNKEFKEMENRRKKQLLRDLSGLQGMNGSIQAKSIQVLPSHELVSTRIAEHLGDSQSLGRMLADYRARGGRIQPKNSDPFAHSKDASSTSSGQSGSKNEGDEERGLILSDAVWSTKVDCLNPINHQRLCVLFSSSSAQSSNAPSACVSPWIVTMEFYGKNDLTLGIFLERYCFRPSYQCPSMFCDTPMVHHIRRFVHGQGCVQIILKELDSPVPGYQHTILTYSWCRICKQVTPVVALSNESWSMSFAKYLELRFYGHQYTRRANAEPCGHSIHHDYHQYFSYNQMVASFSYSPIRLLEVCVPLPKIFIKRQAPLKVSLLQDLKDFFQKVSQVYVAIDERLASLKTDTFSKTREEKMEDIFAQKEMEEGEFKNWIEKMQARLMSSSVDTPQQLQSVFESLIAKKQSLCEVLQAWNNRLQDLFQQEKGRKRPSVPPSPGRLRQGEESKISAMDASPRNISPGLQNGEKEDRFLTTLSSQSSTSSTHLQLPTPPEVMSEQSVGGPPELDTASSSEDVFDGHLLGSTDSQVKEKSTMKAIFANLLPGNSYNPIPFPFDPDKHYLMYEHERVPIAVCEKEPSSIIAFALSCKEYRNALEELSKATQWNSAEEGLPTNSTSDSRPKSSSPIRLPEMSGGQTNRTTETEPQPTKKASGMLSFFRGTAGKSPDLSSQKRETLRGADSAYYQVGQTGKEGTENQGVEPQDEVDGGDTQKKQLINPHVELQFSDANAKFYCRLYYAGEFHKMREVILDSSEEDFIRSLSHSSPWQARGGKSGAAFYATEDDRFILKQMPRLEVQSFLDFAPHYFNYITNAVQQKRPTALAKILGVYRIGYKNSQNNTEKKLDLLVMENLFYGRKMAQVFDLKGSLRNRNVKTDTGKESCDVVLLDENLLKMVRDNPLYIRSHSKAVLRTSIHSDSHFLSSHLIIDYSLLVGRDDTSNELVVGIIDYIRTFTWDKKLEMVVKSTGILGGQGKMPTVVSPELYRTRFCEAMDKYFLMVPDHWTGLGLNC

| Structure (SMILES) | IC50 [µM] |
| --- | --- |
| Cc1ccccc1-c1cc(Nc2nc(N3CCOCC3)c3oc(-c4ccncc4)cc3n2)[nH]n1 [Compound 2, 4-morpholino-N-[5-(o-tolyl)-1H-pyrazol-3-yl]-6-(4-pyridyl)furo[3,2-d]pyrimidin-2-amine, hydrogen chloride] | 0.0648 |
| Fc1cccc(-c2cc(Nc3nc(N4CCOCC4)c4occc4n3)[nH]n2)c1 [Compound 7, N-[5-(3-fluorophenyl)-1H-pyrazol-3-yl]-4-morpholino-furo[3,2-d]pyrimidin-2-amine, hydrogen chloride] | 0.451 |
| CN(C)Cc1cc2nc(Nc3cc(-c4ccccc4)n[nH]3)nc(N3CCOCC3)c2o1 [Compound 14] | 0.847 |
| c1ccc(-c2cc(Nc3nc(N4CCOCC4)c4oc(CN5CCCC5)cc4n3)[nH]n2)cc1 [Compound 16] | 1 |
| c1cncc(-c2cc(Nc3nc(N4CCOCC4)c4oc(-c5ccncc5)cc4n3)[nH]n2)c1 [Compound 18, 4-morpholino-6-(4-pyridyl)-N-[5-(3-pyridyl)-1H-pyrazol-3-yl]furo[3,2-d]pyrimidin-2-amine, hydrogen chloride] | 0.144 |
| c1ccc(-c2cc(Nc3nc(N4CCOCC4)c4oc(-c5ccncc5)cc4n3)[nH]n2)nc1 [Compound 19, 4-morpholino-6-(4-pyridyl)-N-[5-(2-pyridyl)-1H-pyrazol-3-yl]furo[3,2-d]pyrimidin-2-amine, hydrogen chloride] | 0.064 |
| Cc1cc(-c2cc(Nc3nc(N4CCOCC4)c4oc(-c5ccncc5)cc4n3)[nH]n2)ccn1 [Compound 22, N-(3-(2-methylpyridin-4-yl)-1H-pyrazol-5-yl)-4-morpholino-6-(pyridin-4-yl)furo[3,2-d]pyrimidin-2-amine hydrochloride] | 0.027 |
| Cc1cncc(-c2cc(Nc3nc(N4CCOCC4)c4oc(-c5ccncc5)cc4n3)[nH]n2)c1 [Compound 23, N-[5-(5-methyl-3-pyridyl)-1H-pyrazol-3-yl]-4-morpholino-6-(4-pyridyl)furo[3,2-d]pyrimidin-2-amine, hydrogen chloride] | 0.195 |
| COc1cccc(-c2cc(Nc3nc(N4CCOCC4)c4oc(-c5ccncc5)cc4n3)[nH]n2)c1 [Compound 24, N-[5-(3-methoxypheny1)-1H-pyrazol-3-yl]-4-morpholino-6-(4-pyridyl)furo[3,2-d]pyrimidin-2-amine, hydrogen chloride] | 0.06 |
| c1ccc(-c2cc(Nc3nc(N4CCOCC4)c4oc(-c5ccccn5)cc4n3)[nH]n2)cc1 [Compound 26, 4-morpholino-N-(5-phenyl-1H-pyrazol-3-yl)-6-(2-pyridyl)furo[3,2-d]pyrimidin-2-amine, hydrogen chloride] | 0.0001 |
| c1ccc(-c2cc(Nc3nc(N4CCOCC4)c4oc(-c5cccnc5)cc4n3)[nH]n2)cc1 [Compound 29, 4-morpholino-N-(5-phenyl-1H-pyrazol-3-yl)-6-(3-pyridyl)furo[3,2-d]pyrimidin-2-amine, hydrogen chloride] | 0.001 |
| Cc1cccc(-c2cc(Nc3nc(N4CCOCC4)c4oc(-c5cccnc5)cc4n3)[nH]n2)c1 [Compound 30, 4-morpholino-N-[5-(m-tolyl)-1H-pyrazol-3-yl]-6-(3-pyridyl)furo[3,2-d]pyrimidin-2-amine, hydrogen chloride] | 0.0005 |

Further lines, results first:

| IC50 [µM] | Structure (SMILES) |
| --- | --- |
| 0.0309 | Cc1ccc(-c2cc(Nc3nc(N4CCOCC4)c4oc(-c5ccncc5)cc4n3)[nH]n2)cc1 [Compound 4, 4-morpholino-N-[5-(p-tolyl)-1H-pyrazol-3-yl]-6-(4-pyridyl)furo[3,2-d]pyrimidin-2-amine, hydrogen chloride] |
| 0.279 | Cc1cc(Nc2nc(N3CCOCC3)c3oc(-c4ccncc4)cc3n2)[nH]n1 [Compound 5, N-(5-methyl-1H-pyrazol-3-yl)-4-morpholino-6-(4-pyridyl)furo[3,2-d]pyrimidin-2-amine, hydrogen chloride] |
| 0.0446 | c1cc(-c2cc(Nc3nc(N4CCOCC4)c4oc(-c5ccncc5)cc4n3)[nH]n2)ccn1 [Compound 6, 4-morpholino-6-(4-pyridyl)-N-[5-(4-pyridyl)-1H-pyrazol-3-yl]furo[3,2-d]pyrimidin-2-amine, hydrogen chloride] |
| 0.0595 | Cc1cccc(-c2cc(Nc3nc(N4CCOCC4)c4occc4n3)[nH]n2)c1 [Compound 8, 4-morpholino-N-[5-(m-tolyl)-1H-pyrazol-3-yl]furo[3,2-d]pyrimidin-2-amine, hydrogen chloride] |
| > 10 | Cc1cc(Nc2nc(N3CCOCC3)c3occc3n2)[nH]n1 [Compound 9, N-(5-methyl-1H-pyrazol-3-yl)-4-morpholino-furo[3,2-d]pyrimidin-2-amine, hydrogen chloride] |
| 6.22 | c1cc(-c2cc(Nc3nc(N4CCOCC4)c4occc4n3)[nH]n2)ccn1 [Compound 10, 4-morpholino-N-(3-(pyridin-4-yl)-1H-pyrazol-5-yl)furo[3,2-d]pyrimidin-2-amine hydrochloride] |
| 0.0544 | Clc1cc2nc(Nc3cc(-c4ccccc4)n[nH]3)nc(N3CCOCC3)c2o1 [Compound 11, 6-chloro-4-morpholino-N-(5-phenyl-1H-pyrazol-3-yl)furo[3,2-d]pyrimidin-2-amine hydrochloride] |
| 0.116 | c1ccc(-c2cc(Nc3nc(N4CCOCC4)c4oc(CN5CCOCC5)cc4n3)[nH]n2)cc1 [Compound 12, 4-morpholino-6-(morpholinomethyl)-N-(3-phenyl-1H-pyrazol-5-yl)furo[3,2-d]pyrimidin-2-amine hydrochloride] |
| 0.545 | c1ccc(-c2cc(Nc3nc(N4CCOCC4)c4oc(CN5CCCCC5)cc4n3)[nH]n2)cc1 [Compound 13] |
| 0.071 | CN1CCN(Cc2cc3nc(Nc4cc(-c5ccccc5)n[nH]4)nc(N4CCOCC4)c3o2)CC1 [Compound 15] |
| 0.303 | COCCN(C)Cc1cc2nc(Nc3cc(-c4ccccc4)n[nH]3)nc(N3CCOCC3)c2o1 [Compound 17] |
| 0.009 | Cc1cccc(-c2cc(Nc3nc(N4CCOCC4)c4oc(-c5ccncc5)cc4n3)[nH]n2)n1 [Compound 20, N-[5-(6-methyl-2-pyridyl)-1H-pyrazol-3-yl]-4-morpholino-6-(4-pyridyl)furo[3,2-d]pyrimidin-2-amine, hydrogen chloride] |
| 0.027 | Cc1ccnc(-c2cc(Nc3nc(N4CCOCC4)c4oc(-c5ccncc5)cc4n3)[nH]n2)c1 [Compound 21, N-[5-(4-methyl-2-pyridyl)-1H-pyrazol-3-yl]-4-morpholino-6-(4-pyridyl)fnro[3,2-d]pyrimidin-2-amine, hydrogen chloride] |
| 0.956 | FC(F)(F)Oc1cccc(-c2cc(Nc3nc(N4CCOCC4)c4oc(-c5ccncc5)cc4n3)[nH]n2)c1 [Compound 25, 4-morpholino-6-(4-pyridyl)-N-[5-[3-(trifluoromethoxy)phenyl]-1H-pyrazol-3-yl]furo[3,2-d]pyrimidin-2-amine, hydrogen chloride] |
| 0.001 | Cc1cccc(-c2cc(Nc3nc(N4CCOCC4)c4oc(-c5ccccn5)cc4n3)[nH]n2)c1 [Compound 27, 4-morpholino-N-[5-(m-tolyl)-1H-pyrazol-3-yl]-6-(2-pyridyl)furo[3,2-d]pyrimidin-2-amine, hydrogen chloride] |
| 0.677 | c1ccc(-c2cc3nc(Nc4cc(-c5ccncc5)n[nH]4)nc(N4CCOCC4)c3o2)nc1 [Compound 28, 4-morpholino-6-(pyridin-2-yl)-N-(3-(pyridin-4-yl)-1H-pyrazol-5-yl) furo[3,2-d] pyrimidin-2-aminehydrochloride] |
